Key:
[1] = test system: TMZ-resistant cells (Pt3R); experiment: Cell viability CCK8 assay; assay type: cell-based, human; conditions: Homo sapiens, 72 h, CCK8, read-out: IC50, cell growth inhibitory effects
Excerpt: The CCK8 reagent was purchased from TargetMOI (Wellesley Hills, MA) and used according to the manufacturer’s instruction.

TMZ-resistant Pt3R cells = experiment: RNA-seq gene expression profile (and cell morphology) after 48 h; assay type: cell-based, human
Procedure: To gain insights regarding the ability of dual inhibitor 7 to suppress the viability of TMZ-resistant GBM cells, RNA-seq to analyze gene expression profiles was performed.
Figure 7 Effect of compound 7 on gene expression profile in TMZ-resistant Pt3R cells. […] (B) GSEA functionally grouped genes. (C) Genes involved in apoptosis/necrosis and M phase/Kinetochore/Spindle were clustered in the heatmap.
RNA was isolated using the RNA extracting kit (Zymo Research, Irvine, CA) and subjected to RNA-seq serviced by BIOTOOLS Co., Ltd. (New Taipei City, Taiwan). Cell pellets were collected and subjected to proteomic analysis serviced by BIOTOOLS Co., Ltd. The comparison in gene expression between Pt3 and Pt3R was performed using RNA seq and described previously.[60]

Pt3 cells = experiment: ROS assay (DHR, flow cytometry); assay type: cell-based, human; conditions: 48 h
Procedure: (§1) Figure 10 Compound 7 triggers ROS production from mitochondria. (A) After treatment for 48 h, cells were stained with the DHR reagent, and the fluorescent signal was estimated by flow cytometry. Treatment concentration of compound 7 was indicated. (B) Protein lysates were subjected to Western blotting using the indicated antibody. (C) After staining with MitoSOX (red) and Hoechst 33342 (blue), cellular signals were photographed and quantified D. Protein lysates were subjected to Western blotting using the indicated antibody.
(§2) Dihydrorhodamine 123 (DHR; Thermo Fisher Scientific, Waltham, MA) was used to label cellular ROS detected by the flow cytometry,[54] and the MitoSOX reagent (Thermo Fisher Scientific) was used to label mitochondrial ROS.[55]

Pt3R cells [2] = experiment: ROS assay (DHR, flow cytometry); assay type: cell-based, human; conditions: 48 h
Procedure: as §1, §2

Pt3R cells [3] = experiment: Western blotting; assay type: cell-based, human
Procedure: Furthermore, the impact of compound 7 treatment on centromere proteins (CENPs) was assessed. As such, CENPs are the main constituent proteins of the kinetochore, which are essential for cell division. CENPs expression is elevated in GBM tissues and correlated with unfavorable overall survival in glioma patients.[53]
Thus, the ability of compound 7 to disturb redox homeostasis in TMZ-resistant cells and attain amplified therapeutic efficacy for GBM was evaluated. In both Pt3 and Pt3R cells, treatment with compound 7 for 48 h increased the ROS level (Figure 10A). […] Moreover, it was also observed that compound 7 increased mitochondria-derived ROS.
The detailed procedure was described in our previous study.[54],[55],[58],[59] Primary antibodies, anti-CENPA, anti-CENPE, anti-CENPF, and anti-CENPI antibodies, were purchased from abcam (Cambridge, U.K.); anti-CDK1 and anticyclin B1 antibodies were purchased from Santa Cruz Biotechnology, Inc. (Dallas, TX); and anti-EZH2 and anti-H3K27^me3 antibodies were purchased from GeneTex International Corporation (HsinChu, Taiwan), anti-Caspase-3 was purchased from GeneTex International Corporation; anti-cleaved Caspase-3 was purchased from Cell Signaling Technology (Danvers, Massachusetts).

[4] = test system: blood–brain barrier (BBB); experiment: BBB permeability (chamber coated with endothelial cells and astrocytes, MTT of Pt#3-R in lower chamber); assay type: in vitro ADME; conditions: upper chamber, 72 h; 0, 1, 5, 10 (mM printed); viability of Pt#3-R in lower chamber by MTT
Procedure: Fig. S1 Compound 7 was added in the upper chamber coated with endothelial cells and astrocytes, and incubated
for 72 h. Subsequently, the viability of Pt#3-R in the lower chamber was analyzed by the MTT assay. As shown […]

HSP90a = HSP90a (Homo sapiens, UniProt P07900); experiment: In vitro Hsp90 assay (Reaction Biology Corp.); assay type: biochemical; conditions: 10-dose IC50 mode, 3-fold serial dilution starting at 10 μM, single experiment; '-' read as no inhibition
Procedure: The HSP90 inhibitory activity of the synthesized adduct was assessed by Reaction Biology Corporation Malvern, PA. (http://www.reactionbiology.com).

## CCN(c1cc(-c2cccc(N(C)C(=O)c3cc(C(C)C)c(O)cc3O)c2)cc(C(=O)NCc2c(C)cc(C)[nH]c2=O)c1C)C1CCOCC1 [Compound 7, 3′-(2,4-Dihydroxy-5-isopropyl-N-methylbenzamido)-N-((4,6-dimethyl-2-oxo-1,2-dihydropyridin-3-yl)methyl)-5-(ethyl(tetrahydro-2H-pyran-4-yl)amino)-4-methyl-[1,1′-biphenyl]-3-carboxamide]
[1]
  IC50: 1010 ± 690 nM
TMZ-resistant Pt3R cells; Pt3R (Figure 8C)
  centromere proteins (CENPs) CENPF, CENPE, CENPA, CENPI gene expression: decreased
TMZ-resistant Pt3R cells; Pt3R (Figure 9A)
  RBBP8 and BRCA1 gene expression: suppressed
TMZ-resistant Pt3R cells; Pt3R (Figure 9H)
  genes regulating homologous recombination (TOP2A, RAD54B, RAD21, EME1, BRIP1): suppressed
TMZ-resistant Pt3R cells; Pt3R, 2 μM, 48 h
  number of gene expressions decreased (RNA-seq): 498
  number of gene expressions increased (RNA-seq): 297
TMZ-resistant Pt3R cells; Pt3R, 2 μM, 48 h (Figure 7A)
  cell proliferation: significantly inhibited cell proliferation
TMZ-resistant Pt3R cells; Pt3R, 48 h
  M phase/kinetochore/spindle-related gene expression: decreased
  apoptosis/necrosis-related gene expression: increased
Pt3 cells
  ROS level: increased
Pt3R cells [2]
  ROS level: increased
Pt3R cells [3]; Figure 10B
  EZH2 expression and EZH2-modulated H3K27 trimethylation: inhibited
  proteins involved in cleaning ROS (catalase, SOD1, glutathione reductase, GPX1): decreased
Pt3R cells [3]; Figure 10D
  expression of cleaved caspase-3: upregulate
Pt3R cells [3]; Pt3R (Figure 8D)
  CENPs protein expression: decreased
  expression of CDK1 and cyclin B1: downregulated
[4]
  BBB penetration: able to penetrate blood–brain barrier (BBB)
HSP90a
  IC50: 60.1 nM
